Experimental data taken from ChEMBL document CHEMBL4414617, “Identification of 2-Imidazopyridine and 2-Aminopyridone Purinones as Potent Pan-Janus Kinase (JAK) Inhibitors for the Inhaled Treatment of Respiratory Diseases” (J Med Chem, 2019).
pIC50: −log10 of the molar value. Each block holds one compound with its values, some of them ahead of it.

Columns and labels:
[1] = target: Tyrosine-protein kinase JAK1 (Homo sapiens, UniProt P23458)
Description: Inhibition of recombinant human GST-tagged JAK1 (866 to 1154 residues) expressed in baculovirus expression system using PolyGT-Biotin as substrate measured after 3 to 20 hrs by HTRF assay

CHO-K1 = assay: cells; assay type: ADME, cell-based; details: Cricetulus griseus, CHO-K1, 24 h
Description: Cytotoxicity against CHOK1 cells assessed as reduction in ATP levels incubated for 24 hrs by ATPlite luminescence assay

[2] = buffer, pH 1.2
Description: Chemical stability of compound at pH 1.2 to 9

[3] = rat, in vivo, inhaled or intranasal, 3 mg/kg, 24 h
Description: Free maximum concentration of drug in Sprague-Dawley rat at 3 mg/kg administered intratracheally as nanosuspension measured up to 24 hrs by LC-MS/MS analysis

[4] = buffer
Description: Solubility of the compound in sterile water with 0.2% Tween80 using nanosuspension formulation

[5] = buffer; remark: listed apart in the source
Description: Solubility of the compound in PBS with 0.2% Tween80 using nanosuspension formulation

in vivo [6] = details: Wistar, rat, po, 30 mg/kg
in vivo [7] = details: Wistar, rat, po, 30 mg/kg; remark: listed apart in the source
in vivo [8] = details: Wistar, rat, inhaled or intranasal
Description: Half life in Wistar rat at 0.41 mg/kg administered intratracheally as nanosuspension measured up to 24 hrs by LC-MS/MS analysis

in vivo [9] = details: Wistar, rat, inhaled or intranasal; remark: listed apart in the source
in vivo [10] = details: Sprague-Dawley, rat, inhaled or intranasal, 3 mg/kg
in vitro [11] = details: PAMPA
Description: Apparent permeability of compound at 20 uM measured after 5 hrs by PAMPA

physchem = details: octanol/water
Description: Lipophilicity, log D of compound

in vitro [12] = details: rat, plasma
Description: Protein binding in rat plasma by LC-MS/MS-based equilibrium dialysis method

in vitro [13] = details: human, plasma
Description: Protein binding in human plasma by LC-MS/MS-based equilibrium dialysis method

in vitro [14] = details: rat, microsomes
Description: Drug metabolism in rat liver microsomes at 5 uM incubated for 30 mins by UPLC-MS/MS analysis

in vitro [15] = details: human, microsomes
Description: Drug metabolism in human liver microsomes at 5 uM incubated for 30 mins by UPLC-MS/MS analysis

hERG (KCNH2) = hERG (KCNH2) (Homo sapiens, UniProt Q12809); assay: in vitro
Description: Inhibition of human ERG at 10 uM relative to control

NaV1.5 = NaV1.5 (Homo sapiens, UniProt Q14524); assay: in vitro
Description: Inhibition of NaV1.5 (unknown origin) at 10 uM relative to control

Cav1.2 = Cav1.2 (Homo sapiens, UniProt Q13936); assay: in vitro
Description: Inhibition of Cav1.2 (unknown origin) at 10 uM relative to control

Tyrosine-protein kinase JAK1, sequence (P23458 whole entry): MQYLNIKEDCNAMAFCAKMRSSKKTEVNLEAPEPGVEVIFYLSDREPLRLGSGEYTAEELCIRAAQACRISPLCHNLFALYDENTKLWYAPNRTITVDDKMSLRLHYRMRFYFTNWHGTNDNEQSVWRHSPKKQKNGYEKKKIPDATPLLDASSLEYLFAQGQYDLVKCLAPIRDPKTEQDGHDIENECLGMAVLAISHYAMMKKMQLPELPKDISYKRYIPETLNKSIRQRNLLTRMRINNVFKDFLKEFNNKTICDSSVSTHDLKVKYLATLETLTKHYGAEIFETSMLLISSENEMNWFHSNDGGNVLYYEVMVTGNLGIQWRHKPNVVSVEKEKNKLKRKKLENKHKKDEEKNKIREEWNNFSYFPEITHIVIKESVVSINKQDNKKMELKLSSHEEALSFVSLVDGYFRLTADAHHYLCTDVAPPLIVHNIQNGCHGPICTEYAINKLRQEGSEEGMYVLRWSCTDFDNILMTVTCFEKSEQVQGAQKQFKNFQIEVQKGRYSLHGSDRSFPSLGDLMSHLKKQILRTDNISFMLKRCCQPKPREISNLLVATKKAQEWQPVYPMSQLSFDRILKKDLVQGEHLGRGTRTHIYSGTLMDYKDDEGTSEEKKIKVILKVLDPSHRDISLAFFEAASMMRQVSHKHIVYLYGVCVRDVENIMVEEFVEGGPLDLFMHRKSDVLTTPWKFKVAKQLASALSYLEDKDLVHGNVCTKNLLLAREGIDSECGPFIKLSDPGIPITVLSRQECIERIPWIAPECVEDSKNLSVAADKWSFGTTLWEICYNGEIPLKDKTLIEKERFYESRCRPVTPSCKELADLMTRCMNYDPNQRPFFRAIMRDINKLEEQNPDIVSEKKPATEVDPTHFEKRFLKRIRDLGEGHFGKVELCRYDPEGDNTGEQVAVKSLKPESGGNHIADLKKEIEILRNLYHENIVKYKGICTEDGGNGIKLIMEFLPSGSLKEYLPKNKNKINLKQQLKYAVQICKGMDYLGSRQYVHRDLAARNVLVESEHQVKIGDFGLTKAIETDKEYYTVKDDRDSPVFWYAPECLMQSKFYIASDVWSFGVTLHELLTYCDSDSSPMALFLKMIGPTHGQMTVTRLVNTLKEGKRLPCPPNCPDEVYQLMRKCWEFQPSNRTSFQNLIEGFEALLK
NaV1.5, sequence (Q14524 whole entry): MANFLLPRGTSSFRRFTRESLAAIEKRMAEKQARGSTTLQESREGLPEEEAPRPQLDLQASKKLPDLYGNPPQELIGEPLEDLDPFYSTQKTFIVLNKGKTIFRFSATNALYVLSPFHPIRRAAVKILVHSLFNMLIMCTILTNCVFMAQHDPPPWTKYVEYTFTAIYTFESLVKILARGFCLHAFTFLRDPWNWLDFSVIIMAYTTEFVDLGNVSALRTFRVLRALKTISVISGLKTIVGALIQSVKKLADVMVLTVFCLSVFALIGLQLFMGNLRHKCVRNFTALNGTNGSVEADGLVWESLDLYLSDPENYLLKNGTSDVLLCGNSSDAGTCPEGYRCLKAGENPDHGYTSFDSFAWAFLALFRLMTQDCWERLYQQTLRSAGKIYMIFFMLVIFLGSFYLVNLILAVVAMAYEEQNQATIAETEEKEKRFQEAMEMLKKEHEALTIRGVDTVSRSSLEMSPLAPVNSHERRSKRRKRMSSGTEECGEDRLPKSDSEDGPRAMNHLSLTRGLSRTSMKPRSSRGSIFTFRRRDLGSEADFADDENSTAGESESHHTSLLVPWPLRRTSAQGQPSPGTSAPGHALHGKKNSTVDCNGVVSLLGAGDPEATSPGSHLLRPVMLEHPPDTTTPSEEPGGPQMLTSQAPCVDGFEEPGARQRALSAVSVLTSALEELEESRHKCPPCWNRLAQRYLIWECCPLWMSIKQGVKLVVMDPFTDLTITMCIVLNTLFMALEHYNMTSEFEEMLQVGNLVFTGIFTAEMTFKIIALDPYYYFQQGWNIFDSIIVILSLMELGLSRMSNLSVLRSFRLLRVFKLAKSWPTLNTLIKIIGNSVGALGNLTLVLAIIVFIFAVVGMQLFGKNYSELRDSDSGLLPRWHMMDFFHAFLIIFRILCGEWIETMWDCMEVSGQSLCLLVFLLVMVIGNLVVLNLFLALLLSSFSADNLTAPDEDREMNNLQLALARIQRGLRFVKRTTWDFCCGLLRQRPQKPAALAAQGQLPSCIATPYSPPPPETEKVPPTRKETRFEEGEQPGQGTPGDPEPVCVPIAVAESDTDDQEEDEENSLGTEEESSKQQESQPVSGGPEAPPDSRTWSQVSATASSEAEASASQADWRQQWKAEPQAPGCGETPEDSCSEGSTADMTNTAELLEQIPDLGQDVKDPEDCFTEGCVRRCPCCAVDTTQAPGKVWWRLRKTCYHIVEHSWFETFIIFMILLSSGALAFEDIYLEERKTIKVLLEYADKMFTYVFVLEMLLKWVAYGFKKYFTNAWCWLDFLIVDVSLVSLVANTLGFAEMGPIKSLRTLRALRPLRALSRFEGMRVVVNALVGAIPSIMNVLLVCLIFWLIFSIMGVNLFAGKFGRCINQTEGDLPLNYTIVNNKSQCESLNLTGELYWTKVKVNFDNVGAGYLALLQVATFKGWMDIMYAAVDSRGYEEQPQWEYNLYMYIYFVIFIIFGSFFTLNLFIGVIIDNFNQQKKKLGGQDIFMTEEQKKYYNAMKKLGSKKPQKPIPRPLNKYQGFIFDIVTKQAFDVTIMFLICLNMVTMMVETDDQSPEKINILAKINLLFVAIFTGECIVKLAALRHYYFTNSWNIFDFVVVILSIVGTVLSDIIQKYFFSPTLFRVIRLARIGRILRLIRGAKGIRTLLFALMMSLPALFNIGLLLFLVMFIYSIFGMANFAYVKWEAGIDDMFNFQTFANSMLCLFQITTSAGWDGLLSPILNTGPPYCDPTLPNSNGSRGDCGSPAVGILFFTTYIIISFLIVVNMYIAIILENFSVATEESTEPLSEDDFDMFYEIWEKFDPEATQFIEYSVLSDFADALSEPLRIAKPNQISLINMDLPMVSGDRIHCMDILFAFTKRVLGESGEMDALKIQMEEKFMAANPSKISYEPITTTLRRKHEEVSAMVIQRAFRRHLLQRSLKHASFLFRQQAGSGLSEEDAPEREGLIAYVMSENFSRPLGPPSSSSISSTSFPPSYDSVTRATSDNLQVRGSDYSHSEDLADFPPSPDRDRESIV
hERG (KCNH2), sequence (Q12809 whole entry): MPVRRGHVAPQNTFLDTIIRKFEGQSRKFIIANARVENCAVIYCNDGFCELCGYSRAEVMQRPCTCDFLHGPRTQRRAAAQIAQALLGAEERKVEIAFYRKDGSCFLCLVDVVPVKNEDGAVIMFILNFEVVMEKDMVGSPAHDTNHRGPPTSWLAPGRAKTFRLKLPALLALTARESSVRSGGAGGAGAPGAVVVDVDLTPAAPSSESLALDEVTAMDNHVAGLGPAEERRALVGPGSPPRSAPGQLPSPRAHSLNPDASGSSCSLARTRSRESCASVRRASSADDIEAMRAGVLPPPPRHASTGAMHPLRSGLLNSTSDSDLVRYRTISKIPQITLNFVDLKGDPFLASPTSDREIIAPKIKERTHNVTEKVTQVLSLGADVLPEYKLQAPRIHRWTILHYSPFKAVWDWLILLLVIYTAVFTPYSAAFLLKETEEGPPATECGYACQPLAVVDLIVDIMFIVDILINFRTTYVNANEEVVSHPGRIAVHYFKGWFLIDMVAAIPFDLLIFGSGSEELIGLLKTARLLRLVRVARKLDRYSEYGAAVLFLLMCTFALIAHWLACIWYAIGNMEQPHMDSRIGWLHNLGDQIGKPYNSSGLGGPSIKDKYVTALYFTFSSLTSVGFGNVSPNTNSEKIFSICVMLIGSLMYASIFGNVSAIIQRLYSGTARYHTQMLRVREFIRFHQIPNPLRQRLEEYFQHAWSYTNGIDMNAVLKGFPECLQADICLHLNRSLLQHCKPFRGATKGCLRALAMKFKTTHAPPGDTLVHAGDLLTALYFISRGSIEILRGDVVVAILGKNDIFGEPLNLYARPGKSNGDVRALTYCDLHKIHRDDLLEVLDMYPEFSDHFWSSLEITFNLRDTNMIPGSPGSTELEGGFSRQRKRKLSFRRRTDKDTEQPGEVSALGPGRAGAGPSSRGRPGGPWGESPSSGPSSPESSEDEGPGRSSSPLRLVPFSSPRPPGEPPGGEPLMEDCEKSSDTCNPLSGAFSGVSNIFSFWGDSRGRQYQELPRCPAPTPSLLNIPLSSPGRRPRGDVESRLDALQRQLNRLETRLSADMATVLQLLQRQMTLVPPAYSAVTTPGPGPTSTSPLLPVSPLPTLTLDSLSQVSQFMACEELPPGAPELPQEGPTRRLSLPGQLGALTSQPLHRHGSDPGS

pIC50 [1]: 7.62
Structure (SMILES): O=c1[nH]c2cnc(-c3cnc4ccc(F)cn34)nc2n1[C@@H]1CCOc2c(F)cccc21
pIC50 (CHO-K1): 5.40

Structure (SMILES): C[C@H](c1ccc(F)cn1)n1c(=O)[nH]c2cnc(Nc3ccc[nH]c3=O)nc21
pIC50 (CHO-K1): < 4.00

Stability [2]: Stable
fCmax [3]: 57 ng/mL
solubility [4]: Soluble
solubility [5]: Soluble
AUC(0-inf) at 24 h (in vivo [6]): 32 ng·h/mL
Cmax at 24 h (in vivo [7]): 7 ng/mL
half-life at 24 h (in vivo [8]): 16.3 h
AUC at 24 h (in vivo [9]): 118 ng·h/mL
AUC at 24 h (in vivo [10]): 406 ng·h/mL
Papp at 5 h, 20 µM (in vitro [11]): 0.61 ×10⁻⁶ cm/s
logD (physchem): 2.1
fraction unbound (in vitro [12]): 0.21
fraction unbound (in vitro [13]): 0.17
metabolised at 0.5 h, 5 µM (in vitro [14]): 17%
metabolised at 0.5 h, 5 µM (in vitro [15]): 21%
Structure (SMILES): N#CC[C@H]1CC[C@H](n2c(=O)[nH]c3cnc(Nc4ccc[nH]c4=O)nc32)CC1
pIC50 (CHO-K1): < 4.00
inhibition at 10 µM (hERG (KCNH2)): < 15%
inhibition at 10 µM (NaV1.5): < 15%
inhibition at 10 µM (Cav1.2): < 15%

Structure (SMILES): O=c1[nH]c2cnc(-c3cnc4ccc(F)cn34)nc2n1[C@H]1CC[C@H](O)CC1
pIC50 (CHO-K1): 4.00

pIC50 [1]: 8.46
Structure (SMILES): C[C@H](c1ncc(F)cn1)n1c(=O)[nH]c2cnc(-c3cnc4ccc(F)cn34)nc21
pIC50 (CHO-K1): 5.37

Structure (SMILES): O=c1[nH]cc(Cl)cc1Nc1ncc2[nH]c(=O)n([C@@H]3CCOc4c(F)cccc43)c2n1
pIC50 (CHO-K1): 4.44

Structure (SMILES): C[C@H](c1ccc(F)cn1)n1c(=O)[nH]c2cnc(Nc3cc(F)c[nH]c3=O)nc21
pIC50 (CHO-K1): < 4.00

Structure (SMILES): O=c1[nH]cc(F)cc1Nc1ncc2[nH]c(=O)n([C@@H]3CCOc4c(F)cccc43)c2n1
pIC50 (CHO-K1): < 4.00

Structure (SMILES): Cc1c[nH]c(=O)c(Nc2ncc3[nH]c(=O)n([C@@H]4CCOc5c(F)cccc54)c3n2)c1
pIC50 (CHO-K1): 4.29

pIC50 [1]: 7.10
Structure (SMILES): C[C@]1(O)CC[C@H](n2c(=O)[nH]c3cnc(-c4cnc5ccc(F)cn45)nc32)CC1
pIC50 (CHO-K1): 4.80
